The text below walks through data of article PMC6522510 (Nature Communications, 2019).

SMILES strings stand for the structures. Structures can show the parent of a compound that is named as a salt. Where two headings read alike, the source gives them in different places.

Test systems include CHRF288-11; CMK; CMS; M07e; ML-2; MOLM-13; MV4-11; U937.
Holding throughout (set-up): species or system AML cell lines (8); Primary HTS, single concentration about 10 uM, Cell Titer Glo viability; log10 luminescence, per cent inhibition relative to cycloheximide control
Settings in all cases: 72 h, relative to cycloheximide control, log10 luminescence, inhibitor

Turning to `O=C1OC(=O)C(c2c[nH]c3ccccc23)=C1c1c[nH]c2ccccc12` [SJ000581166-1], the CHRF288-11 %inh with CHRF288-11 is recorded as 5.422%. Besides, the CMK %inh in the test on CMK turned out to be 0.5161%. Further, the CMS %inh in the test on CMS is 5.505%. Also, in the test with M07e, the M07e %inh is -1.376%. Besides, in the test with ML-2, the ML-2 %inh is listed as 2.957%. The MOLM-13 %inh with MOLM-13 amounted to 3.376%. In the test with MV4-11, the MV4-11 %inh worked out at 1.035%. Also, the U937 %inh in the test with U937 amounted to 1.32%.
Regarding `Cc1ccc(S(=O)(=O)NC(=O)NN2CCCCCC2)cc1` [SJ000285887-7, TOLAZAMIDE], in the test with CHRF288-11, the CHRF288-11 %inh was found to be 90.56%. In addition, the CMK %inh with CMK is on record as -1.031%. For the same molecule, the CMS %inh in the test on CMS turned out to be 0.4752%. In addition, the M07e %inh in the test with M07e is recorded as 4.47%. The ML-2 %inh with ML-2 was -1.198%. In addition, in the test on MOLM-13, the MOLM-13 %inh is 0.3359%. The MV4-11 %inh in the test on MV4-11 was found to be 0.7665%. Also, the U937 %inh in the test on U937 is -0.04508%.
On to `O=C1Nc2ccccc2/C1=C/Nc1ccc2[nH]c(=O)[nH]c2c1` [SJ000573356-1, U7003/61/1], for which the CHRF288-11 %inh with CHRF288-11 stood at 4.722%. Moreover, the CMK %inh in the test on CMK was determined as 1.313%. Also, in the test on CMS, the CMS %inh turned out to be 0.8831%. For the same molecule, the M07e %inh in the test on M07e stood at 4.187%. For the same molecule, in the test with ML-2, the ML-2 %inh was 0.9059%. The MOLM-13 %inh with MOLM-13 is given as 61.37%. The MV4-11 %inh in the test with MV4-11 is recorded as 43.08%. The U937 %inh with U937 came to 2.265%.
Take `Nc1c(C(=O)c2cccc(OC[C@H](O)CO)c2)cnn1-c1ccc(F)cc1` [SJ000581020-1]: in the test on CHRF288-11, the CHRF288-11 %inh was found to be 2.337%. In the test on CMK, the CMK %inh was 3.324%. In addition, the CMS %inh in the test with CMS is 0.9092%. Further, in the test on M07e, the M07e %inh is listed as 2.292%. In the test on ML-2, the ML-2 %inh is on record as 2.034%. Besides, the MOLM-13 %inh with MOLM-13 turned out to be 0.004587%. For the same molecule, the MV4-11 %inh in the test with MV4-11 is recorded as 0.9707%. Also, the U937 %inh in the test with U937 amounted to 0.3347%.
Consider `COc1cccc(-n2nc(C)c3c(N/N=C(\C)c4ccncc4)ncnc32)c1` [SJ000573178-1, U17747/163/1], for which, in the test on CHRF288-11, the CHRF288-11 %inh is recorded as -4.056%. In the test with CMK, the CMK %inh is -0.9949%. Also, the CMS %inh in the test on CMS was 0.07052%. In the test with M07e, the M07e %inh was -1.478%. Further, the ML-2 %inh in the test with ML-2 is given as -1.055%. Moreover, the MOLM-13 %inh in the test with MOLM-13 was -1.351%. Further, in the test on MV4-11, the MV4-11 %inh is -0.7035%. The U937 %inh in the test on U937 is -2.387%.
As to `NC(=O)c1cc(-c2ccc(F)cc2)cc(-c2ccncc2)c1N` [SJ000573019-1, R12070/183/1], the CHRF288-11 %inh with CHRF288-11 is given as 0.09024%. The CMK %inh with CMK is recorded as 2.8%. Also, in the test on CMS, the CMS %inh is reported as -0.425%. In addition, the M07e %inh in the test with M07e is -3.642%. In the test on ML-2, the ML-2 %inh is recorded as -4.125%. For the same molecule, the MOLM-13 %inh in the test with MOLM-13 amounted to 2.771%. The MV4-11 %inh with MV4-11 is given as -5.414%. Also, in the test with U937, the U937 %inh is recorded as -0.8611%.
For the molecule `Cc1ccc(/C=C2\CNC/C(=C\c3ccc(C)cc3)C2=O)cc1` [SJ000772404-1, NSC 632839 HYDROCHLORIDE], the CHRF288-11 %inh in the test on CHRF288-11 was determined as 82.45%. Also, the CMK %inh with CMK is on record as 116.6%. In the test with CMS, the CMS %inh is recorded as 103.5%. For the same molecule, in the test on M07e, the M07e %inh amounted to 129.2%. In the test on ML-2, the ML-2 %inh is listed as 61.57%. For the same molecule, the MOLM-13 %inh with MOLM-13 is listed as 99.63%. Besides, in the test on MV4-11, the MV4-11 %inh is 77.36%. Further, the U937 %inh in the test with U937 was determined as 84.59%.
On to `CC1(OC(=O)c2cccs2)C(=O)C=C2C=C3CCCN3C=C2C1=O` (stereo not shown) [SJ000580493-1], for which the CHRF288-11 %inh in the test on CHRF288-11 is 4.124%. Further, the CMK %inh with CMK worked out at 4.862%. Also, the CMS %inh in the test on CMS was 2.99%. In the test on M07e, the M07e %inh stood at 2.009%. Further, in the test on ML-2, the ML-2 %inh is given as -0.6831%. In the test on MOLM-13, the MOLM-13 %inh is listed as -0.7413%. Further, the MV4-11 %inh with MV4-11 stood at 2.091%. Also, the U937 %inh in the test with U937 worked out at 1.415%.
On to `CC(=O)O[C@H]1C[C@@H]2CC[C@@H]3[C@H](CC[C@@]4(C)[C@H]3C[C@H](N3CC[N+](C)(C)CC3)[C@@H]4OC(C)=O)[C@@]2(C)C[C@@H]1N1CC[N+](C)(C)CC1` [SJ000555714-1, PIPECURIUM BROMIDE], for which the CHRF288-11 %inh in the test on CHRF288-11 is reported as -2.142%. In addition, the CMK %inh with CMK is listed as -9.103%. Moreover, the CMS %inh in the test on CMS turned out to be 0.5876%. In addition, the M07e %inh in the test on M07e was -1.4%. For the same molecule, the ML-2 %inh with ML-2 worked out at 0.08837%. In the test with MOLM-13, the MOLM-13 %inh is listed as -1.447%. For the same molecule, in the test with MV4-11, the MV4-11 %inh turned out to be 0.2738%. Moreover, in the test on U937, the U937 %inh is on record as -1.326%.
With `CNCC(O)c1ccc(OC(=O)C(C)(C)C)c(OC(=O)C(C)(C)C)c1` (stereo not shown) [SJ000287343-2, DIPIVEFRIN HYDROCHLORIDE], in the test with CHRF288-11, the CHRF288-11 %inh is recorded as 9.226%. The CMK %inh in the test with CMK was -4.432%. The CMS %inh in the test with CMS is -0.6385%. Besides, the M07e %inh with M07e is reported as 1.591%. Also, in the test with ML-2, the ML-2 %inh amounted to 3.768%. Moreover, the MOLM-13 %inh with MOLM-13 was determined as 33.32%. Also, the MV4-11 %inh in the test with MV4-11 stood at 8.373%. Moreover, the U937 %inh in the test with U937 is on record as 7.06%.
Turning to `CC(=O)N[C@@H](Cc1ccc(OP(=O)(O)O)cc1)C(=O)N[C@H]1CCC(=O)N2CCC[C@@H](C(=O)NCc3ccccc3)N2C1=O` [SJ000581025-1], in the test with CHRF288-11, the CHRF288-11 %inh is 3.231%. For the same molecule, in the test with CMK, the CMK %inh was -3.468%. Also, the CMS %inh with CMS is given as 0.9205%. Moreover, the M07e %inh in the test on M07e is given as -1.273%. Besides, the ML-2 %inh with ML-2 worked out at 0.2617%. In addition, in the test on MOLM-13, the MOLM-13 %inh is listed as 0.5747%. Further, in the test with MV4-11, the MV4-11 %inh is -4.371%. Further, the U937 %inh in the test on U937 came out at 0.2421%.
As to `C[C@H](CS)C(=O)N1CCC[C@H]1C(=O)O` [SJ000286908-11, CAPTOPRIL], the CHRF288-11 %inh in the test with CHRF288-11 (CHRF288-11 %inh, 10 µM) is on record as -3.474%. For the same molecule, the CMK %inh in the test on CMK (CMK %inh, 10 µM) was -6.202%. Moreover, in the test on CMS (CMS %inh, 10 µM), the CMS %inh is -1.329%. For the same molecule, in the test on M07e (M07e %inh, 10 µM), the M07e %inh is reported as 0.3888%. Further, the ML-2 %inh with ML-2 (ML-2 %inh, 10 µM) is -1.011%. Further, the MOLM-13 %inh in the test with MOLM-13 (MOLM-13 %inh, 10 µM) came out at 1.337%. Further, the MV4-11 %inh with MV4-11 (MV4-11 %inh, 10 µM) is -2.697%. Besides, the U937 %inh in the test with U937 (U937 %inh, 10 µM) is given as -18.23%.
On to `O=C1NC(=NCCc2ccccc2F)S/C1=C\c1ccc2ncccc2c1` [SJ000580983-1], for which, in the test with CHRF288-11, the CHRF288-11 %inh is reported as 13.58%. Moreover, the CMK %inh with CMK worked out at 41.89%. In addition, in the test on CMS, the CMS %inh came to 2.155%. Further, the M07e %inh in the test with M07e came to 0.4729%. The ML-2 %inh with ML-2 stood at 8.671%. For the same molecule, the MOLM-13 %inh with MOLM-13 stood at 4.839%. Further, in the test with MV4-11, the MV4-11 %inh is reported as -0.6215%. In addition, the U937 %inh in the test with U937 is listed as 4.047%.
With `O=C(Nc1n[nH]c2cc(-c3cc(F)ccc3F)ccc12)C1CC1` [SJ000573189-1, VB100064-133A2], the CHRF288-11 %inh with CHRF288-11 turned out to be 23.56%. The CMK %inh with CMK came out at 46.32%. In the test with CMS, the CMS %inh is 3.394%. For the same molecule, in the test on M07e, the M07e %inh stood at 13.96%. Also, the ML-2 %inh in the test on ML-2 was found to be 4.109%. Also, the MOLM-13 %inh with MOLM-13 turned out to be 3.339%. The MV4-11 %inh in the test with MV4-11 was determined as 1.045%. In addition, in the test on U937, the U937 %inh is on record as 8.276%.
Turning to `CC1=C(/C=C/C(C)=C/C=C/C(C)=C/C(=O)O)C(C)(C)CCC1O` (stereo not shown) [SJ000561070-1, 4-HYDROXYRETINOIC ACID], the CHRF288-11 %inh with CHRF288-11 was -3.112%. Besides, the CMK %inh with CMK is listed as 1.361%. Moreover, the CMS %inh in the test with CMS is reported as 38.35%. Moreover, the M07e %inh in the test with M07e came to 7.941%. Besides, the ML-2 %inh in the test on ML-2 came to 5.11%. In addition, in the test with MOLM-13, the MOLM-13 %inh came to 7.362%. The MV4-11 %inh with MV4-11 is 34.76%. In the test on U937, the U937 %inh turned out to be 18.11%.
In the case of `Nc1c(C(=O)c2cccc(C#CCN3CCCCC3)c2)cnn1-c1ccc(F)cc1` [SJ000581090-1], the CHRF288-11 %inh in the test with CHRF288-11 was 2.1%. Besides, the CMK %inh in the test on CMK is on record as -1.859%. The CMS %inh with CMS is recorded as 8.688%. In the test on M07e, the M07e %inh is recorded as 8.075%. For the same molecule, in the test on ML-2, the ML-2 %inh is 0.9731%. Also, the MOLM-13 %inh with MOLM-13 is reported as 0.3011%. Besides, in the test with MV4-11, the MV4-11 %inh is listed as 1.177%. In addition, the U937 %inh in the test on U937 came to 7.38%.
On to `Cn1cc(C2=C(c3ccsc3)C(=O)NC2=O)c2ccccc21` [SJ000581113-1], for which, in the test with CHRF288-11, the CHRF288-11 %inh came to 8.413%. The CMK %inh with CMK is listed as 4.136%. Besides, the CMS %inh in the test with CMS is on record as 3.6%. The M07e %inh with M07e worked out at 3.37%. Further, in the test on ML-2, the ML-2 %inh came out at 4.351%. Further, in the test with MOLM-13, the MOLM-13 %inh was 31.75%. Further, the MV4-11 %inh in the test on MV4-11 is 4.067%. Besides, the U937 %inh in the test on U937 was determined as 0.5485%.
